Measurements reported in patent US10077436B2, “Beta-glucosidase enzymes for increased biomass saccharification” (Edeniq, Inc., priority 2013, dated 2018).

Tested on: A-BG (Accellerase® BG from DuPont), commercial beta-glucosidase
Assay: BG kinetics, cellobiose hydrolysis assay (HPLC) with glucose as competitive inhibitor, A-BG
Format: biochemical
From the text: The kinetic properties of beta glucosidase are important for cellulosic hydrolysis, since in commercial situations a wide range of substrate concentrations and different product inhibition conditions will be encountered. In this example, a Michaelis-Menten kinetics model was used to describe BG kinetics.
BG activity assay using cellobiose is the other standard assay to measure BG or cellobiase activity, which utilizes hydrolysis of cellobiose by cellobiase into two molecules of glucose, the last step of enzymatic hydrolysis of cellulose. One cellobiase unit (commonly termed as CBU) is defined as the amount of enzyme that converts […] of cellobiose or produces 2 μmol of glucose per min. Briefly, to determine BG activity, 25 μL of diluted enzyme in 50 mM citrate buffer (pH 4.8) equilibrated to 50° C. was mixed with 25 μL cellobiose (or cellobiose/glucose mixture for the kinetic study) to start the reaction. The mixture was incubated at 50° C. for 10 min, and the reaction was terminated by incubating the mixture at 99° C. for 5 min. Different methods are available to measure the glucose produced in the assays. For the kinetic study, HPLC was used.
To determine kinetic properties using cellobiose substrate, duplicate assays with cellobiose concentrations ranging from 0.47 to 15 mM and glucose concentrations of 0, 0.9, 4.5, 6.75, and 8.1 (for A-BG) or 9 (for all the other three BGs) g/L were performed. As for pNPG substrate, the range of cellobiose substrate concentration was chosen to show detectable activity at the lowest substrate concentration and saturation stage at high substrate concentration. […] Moreover, theoretically there are two ways to measure BG activity by HPLC when cellobiose is used as the substrate: tracking consumption of cellobiose or tracking production of glucose. […] In Table 3, A % is defined as follows and is an indicator of measurement sensitivity, since the difference of substrate or product concentrations before and after reaction was used to determine BG activity. Δ%=(start conc. of cellobiose−end conc. of cellobiose)/start conc. of cellobiose×100% (3) Δ%=(end conc. of glucose−start conc. of glucose)/start conc. of glucose×100% (4)
A similar simultaneous nonlinear regression method based on the competitive inhibition equation expressed in Equation (1) was used to determine kinetic parameters of BG towards cellobiose.
The specific activity used here was determined by the initial velocity approach that is required by implementing Michaelis-Menten model (Copeland, 2000). The specific activity was determined by measuring consumption of cellobiose in the first 10 min of reaction and was expressed as μmol min^−1 mg^−1, where mg^−1 means per mg of total protein. The relative activity was determined based on the maximum activity obtained in the absence of initial glucose inhibition.
The above experimental data were fit in the competitive inhibition model as expressed in Equation (1) by simultaneous nonlinear regression.

Q: Which “loss of activity towards cellobiose under glucose inhibition” value (9 g/L (0.9% w/v) initial glucose, cellobiose substrate) does the source give for OC[C@H]1OC(O)[C@H](O)[C@@H](O)[C@@H]1O (stereo partly drawn) [glucose] here?
A: completely lost its activity

Q: And the Ki (cellobiose substrate, competitive inhibition, pH 4.8, 50° C.)?
A: 5.2 ± 0.63 mM

Q: And the Km/Ki (inhibitor influence, Km for cellobiose / Ki for glucose, pH 4.8, 50° C.)?
A: 1.26
